From the NIST ThermoML archive (doi:10.1021/je201334p)
± gives the expanded uncertainty stated by the source.

Key:
[1] = refractive index (Na D-line) (dimensionless); xn = mol fraction of the nth substance listed; settings: 101 kPa, Liquid, Standard Abbe refractometry
[2] = xn = mol fraction of the nth substance listed; settings: 101 kPa, Liquid; for speed of sound: Sing-around technique in a fixed-path interferometer; for mass density: Vibrating tube method

Compound `CCCC[n+]1cccc(C)c1.O=S(=O)([O-])C(F)(F)F` [1-butyl-3-methylpyridinium trifluoromethanesulfonate] + O has a refractive index ([1]; 288.15 K, x2 = 0) of 1.46446 ± 0.00053, a refractive index ([1]; 288.15 K, x2 = 0.0794) of 1.46358 ± 0.00052 and a refractive index ([1]; 288.15 K, x2 = 0.1517) of 1.46266 ± 0.00052. For the same compound, the refractive index ([1]; 288.15 K, x2 = 0.2502) was 1.46111 ± 0.00051, the refractive index ([1]; 288.15 K, x2 = 0.3515) was 1.4591 ± 0.0005 and the refractive index ([1]; 288.15 K, x2 = 0.4528) was 1.45651 ± 0.00049. For the same compound, the refractive index ([1]; 288.15 K, x2 = 0.5628) was 1.45257 ± 0.00047, the refractive index ([1]; 288.15 K, x2 = 0.6561) was 1.4477 ± 0.00045 and the refractive index ([1]; 288.15 K, x2 = 0.7494) was 1.44008 ± 0.00042. For the same compound, the refractive index ([1]; 288.15 K, x2 = 0.8383) was 1.42747 ± 0.00043, the refractive index ([1]; 288.15 K, x2 = 0.9201) was 1.40357 ± 0.00049 and the refractive index ([1]; 288.15 K, x2 = 0.9603) was 1.37998 ± 0.00069. For the same compound, the refractive index ([1]; 298.15 K, x2 = 0) was 1.46155 ± 0.00053, the refractive index ([1]; 298.15 K, x2 = 0.0794) was 1.46073 ± 0.00053 and the refractive index ([1]; 298.15 K, x2 = 0.1517) was 1.45982 ± 0.00052. For the same compound, the refractive index ([1]; 298.15 K, x2 = 0.2502) was 1.45822 ± 0.00052, the refractive index ([1]; 298.15 K, x2 = 0.3515) was 1.45623 ± 0.00051 and the refractive index ([1]; 298.15 K, x2 = 0.4528) was 1.45363 ± 0.00051. It also gave a refractive index ([1]; 298.15 K, x2 = 0.5628) of 1.44968 ± 0.00051, a refractive index ([1]; 298.15 K, x2 = 0.6561) of 1.44482 ± 0.0005 and a refractive index ([1]; 298.15 K, x2 = 0.7494) of 1.43724 ± 0.0005. It also gave a refractive index ([1]; 298.15 K, x2 = 0.8383) of 1.42474 ± 0.00049, a refractive index ([1]; 298.15 K, x2 = 0.9201) of 1.40118 ± 0.00047 and a refractive index ([1]; 298.15 K, x2 = 0.9603) of 1.37782 ± 0.00046. For the same compound, the refractive index ([1]; 308.15 K, x2 = 0) was 1.45868 ± 0.00053, the refractive index ([1]; 308.15 K, x2 = 0.0794) was 1.45784 ± 0.00053 and the refractive index ([1]; 308.15 K, x2 = 0.1517) was 1.45694 ± 0.00053. It also gave a refractive index ([1]; 308.15 K, x2 = 0.2502) of 1.45535 ± 0.00052, a refractive index ([1]; 308.15 K, x2 = 0.3515) of 1.45331 ± 0.00053 and a refractive index ([1]; 308.15 K, x2 = 0.4528) of 1.45069 ± 0.00053. The refractive index ([1]; 308.15 K, x2 = 0.5628) was 1.44673 ± 0.00054, the refractive index ([1]; 308.15 K, x2 = 0.6561) was 1.44183 ± 0.00056 and the refractive index ([1]; 308.15 K, x2 = 0.7494) was 1.43429 ± 0.00062. It also gave a refractive index ([1]; 308.15 K, x2 = 0.8383) of 1.42192 ± 0.0008, a refractive index ([1]; 308.15 K, x2 = 0.9201) of 1.39863 ± 0.00085 and a refractive index ([1]; 308.15 K, x2 = 0.9603) of 1.3757 ± 0.001. The speed of sound ([2]; 288.15 K, x2 = 0) was 1436.1 ± 1.4 m/s, the speed of sound ([2]; 288.15 K, x2 = 0.0794) was 1439.2 ± 1.3 m/s and the speed of sound ([2]; 288.15 K, x2 = 0.1517) was 1442.3 ± 1.3 m/s. For the same compound, the speed of sound ([2]; 288.15 K, x2 = 0.2502) was 1447.7 ± 1.2 m/s, the speed of sound ([2]; 288.15 K, x2 = 0.3515) was 1454.3 ± 1.2 m/s and the speed of sound ([2]; 288.15 K, x2 = 0.4528) was 1463 ± 1.1 m/s. The speed of sound ([2]; 288.15 K, x2 = 0.5628) was 1475.6 ± 1.1 m/s, the speed of sound ([2]; 288.15 K, x2 = 0.6561) was 1489.9 ± 1.1 m/s and the speed of sound ([2]; 288.15 K, x2 = 0.7494) was 1508.6 ± 1 m/s. The speed of sound ([2]; 288.15 K, x2 = 0.8383) was 1530.4 ± 1 m/s, the speed of sound ([2]; 288.15 K, x2 = 0.9201) was 1548.9 ± 1 m/s and the speed of sound ([2]; 288.15 K, x2 = 0.9603) was 1553.2 ± 1 m/s. The mass density ([2]; 288.15 K, x2 = 0) was 1287.07 ± 0.61 kg/m3, the mass density ([2]; 288.15 K, x2 = 0.0794) was 1285.23 ± 0.55 kg/m3 and the mass density ([2]; 288.15 K, x2 = 0.1517) was 1283.28 ± 0.5 kg/m3. The mass density ([2]; 288.15 K, x2 = 0.2502) was 1279.99 ± 0.43 kg/m3, the mass density ([2]; 288.15 K, x2 = 0.3515) was 1275.76 ± 0.37 kg/m3 and the mass density ([2]; 288.15 K, x2 = 0.4528) was 1270.21 ± 0.32 kg/m3. It also gave a mass density ([2]; 288.15 K, x2 = 0.5628) of 1261.9 ± 0.27 kg/m3, a mass density ([2]; 288.15 K, x2 = 0.6561) of 1251.55 ± 0.24 kg/m3 and a mass density ([2]; 288.15 K, x2 = 0.7494) of 1235.48 ± 0.21 kg/m3. It also gave a mass density ([2]; 288.15 K, x2 = 0.8383) of 1208.29 ± 0.18 kg/m3, a mass density ([2]; 288.15 K, x2 = 0.9201) of 1155.76 ± 0.15 kg/m3 and a mass density ([2]; 288.15 K, x2 = 0.9603) of 1103.57 ± 0.14 kg/m3. For the same compound, the speed of sound ([2]; 298.15 K, x2 = 0) was 1412.3 ± 1.4 m/s, the speed of sound ([2]; 298.15 K, x2 = 0.0794) was 1415.5 ± 1.3 m/s and the speed of sound ([2]; 298.15 K, x2 = 0.1517) was 1418.7 ± 1.3 m/s. It also gave a speed of sound ([2]; 298.15 K, x2 = 0.2502) of 1424.3 ± 1.2 m/s, a speed of sound ([2]; 298.15 K, x2 = 0.3515) of 1431.2 ± 1.2 m/s and a speed of sound ([2]; 298.15 K, x2 = 0.4528) of 1440 ± 1.1 m/s. It also gave a speed of sound ([2]; 298.15 K, x2 = 0.5628) of 1452.9 ± 1.1 m/s, a speed of sound ([2]; 298.15 K, x2 = 0.6561) of 1467.6 ± 1 m/s and a speed of sound ([2]; 298.15 K, x2 = 0.7494) of 1487.4 ± 1 m/s. It also gave a speed of sound ([2]; 298.15 K, x2 = 0.8383) of 1512.5 ± 1 m/s, a speed of sound ([2]; 298.15 K, x2 = 0.9201) of 1540.1 ± 1 m/s and a speed of sound ([2]; 298.15 K, x2 = 0.9603) of 1553.5 ± 1 m/s. It also gave a mass density ([2]; 298.15 K, x2 = 0) of 1279.41 ± 0.6 kg/m3, a mass density ([2]; 298.15 K, x2 = 0.0794) of 1277.62 ± 0.54 kg/m3 and a mass density ([2]; 298.15 K, x2 = 0.1517) of 1275.63 ± 0.49 kg/m3. It also gave a mass density ([2]; 298.15 K, x2 = 0.2502) of 1272.28 ± 0.43 kg/m3, a mass density ([2]; 298.15 K, x2 = 0.3515) of 1268 ± 0.37 kg/m3 and a mass density ([2]; 298.15 K, x2 = 0.4528) of 1262.4 ± 0.32 kg/m3. It also gave a mass density ([2]; 298.15 K, x2 = 0.5628) of 1254.01 ± 0.27 kg/m3, a mass density ([2]; 298.15 K, x2 = 0.6561) of 1243.59 ± 0.24 kg/m3 and a mass density ([2]; 298.15 K, x2 = 0.7494) of 1227.52 ± 0.21 kg/m3. The mass density ([2]; 298.15 K, x2 = 0.8383) was 1200.56 ± 0.18 kg/m3, the mass density ([2]; 298.15 K, x2 = 0.9201) was 1149.07 ± 0.14 kg/m3 and the mass density ([2]; 298.15 K, x2 = 0.9603) was 1098.18 ± 0.12 kg/m3. It also gave a speed of sound ([2]; 308.15 K, x2 = 0) of 1389.6 ± 1.4 m/s, a speed of sound ([2]; 308.15 K, x2 = 0.0794) of 1392.5 ± 1.3 m/s and a speed of sound ([2]; 308.15 K, x2 = 0.1517) of 1395.8 ± 1.3 m/s. For the same compound, the speed of sound ([2]; 308.15 K, x2 = 0.2502) was 1401.5 ± 1.2 m/s, the speed of sound ([2]; 308.15 K, x2 = 0.3515) was 1408.5 ± 1.2 m/s and the speed of sound ([2]; 308.15 K, x2 = 0.4528) was 1417.4 ± 1.1 m/s. It also gave a speed of sound ([2]; 308.15 K, x2 = 0.5628) of 1430.3 ± 1.1 m/s, a speed of sound ([2]; 308.15 K, x2 = 0.6561) of 1445.3 ± 1 m/s and a speed of sound ([2]; 308.15 K, x2 = 0.7494) of 1465.8 ± 1 m/s. It also gave a speed of sound ([2]; 308.15 K, x2 = 0.8383) of 1493.4 ± 1 m/s, a speed of sound ([2]; 308.15 K, x2 = 0.9201) of 1528.6 ± 1 m/s and a speed of sound ([2]; 308.15 K, x2 = 0.9603) of 1550.4 ± 1 m/s. It also gave a mass density ([2]; 308.15 K, x2 = 0) of 1271.8 ± 0.59 kg/m3, a mass density ([2]; 308.15 K, x2 = 0.0794) of 1269.98 ± 0.53 kg/m3 and a mass density ([2]; 308.15 K, x2 = 0.1517) of 1267.96 ± 0.48 kg/m3. It also gave a mass density ([2]; 308.15 K, x2 = 0.2502) of 1264.58 ± 0.42 kg/m3, a mass density ([2]; 308.15 K, x2 = 0.3515) of 1260.24 ± 0.36 kg/m3 and a mass density ([2]; 308.15 K, x2 = 0.4528) of 1254.58 ± 0.31 kg/m3. The mass density ([2]; 308.15 K, x2 = 0.5628) was 1246.08 ± 0.27 kg/m3, the mass density ([2]; 308.15 K, x2 = 0.6561) was 1235.57 ± 0.23 kg/m3 and the mass density ([2]; 308.15 K, x2 = 0.7494) was 1219.46 ± 0.21 kg/m3. The mass density ([2]; 308.15 K, x2 = 0.8383) was 1192.69 ± 0.19 kg/m3, the mass density ([2]; 308.15 K, x2 = 0.9201) was 1142.04 ± 0.16 kg/m3 and the mass density ([2]; 308.15 K, x2 = 0.9603) was 1092.3 ± 0.16 kg/m3.
